{"source": "patent US8835631B2", "about": "“Therapeutic agent for cerebral infarction” (Mitsubishi Tanabe Pharma Corporation, priority 2007, dated 2014)", "key": {"IL-10": {"test_system": "IL-10", "experiment": "IL-10 production in LPS-administered mouse", "format": "in vivo, male BALB/c mouse", "method": "(§1) LPS (lipopolysaccharide, derived from E. coli 0111:B4, Sigma, 500 μg/kg) was intraperitoneally administered to male BALB/c mouse (Charles River Laboratories Japan). After 90 min after LPS administration, the blood was taken under anesthesia, and centrifuged to collect plasma. TNF-α was measured using an Immunoassay Kit (R&D Systems) and IL-10, MCP-1 and IL-6 were measured using an Immunoassay Kit (BIOSOURCE). Test compound A, the compound synthesized in Example 3 (test compound B) and the compound synthesized in Example 7 (test compound C) were dissolved in saline, and the mixture was orally administered at 10 mg/kg 30 min before LPS administration. As shown in the Tables, the effect of each test compound on respective […] cytokines was calculated as the ratio of each cytokine concentration in the blood of the group administered with each test compound to each cytokine concentration in the blood of the group free of administration of each test compound."}, "MCP-1 [1]": {"test_system": "MCP-1", "experiment": "MCP-1 production in LPS-administered mouse", "format": "in vivo, male BALB/c mouse", "details": "for MCP-1 production (%): 10 mg/kg orally 30 min before LPS 500 μg/kg i.p., plasma 90 min after LPS, ratio to group without test compound", "method": "as §1"}, "[2]": {"test_system": "rat middle cerebral artery occlusion-reperfusion model", "experiment": "Cerebral infarction volume in rat middle cerebral artery occlusion-reperfusion model", "format": "in vivo, male Wistar rats", "details": "10 mg/kg intravenously 30 min after occlusion, reperfusion 90 min after occlusion, brain isolated 24 hr later, TTC stain; FIG. 7", "method": "The middle cerebral artery of male Wistar rats (Japan Laboratory Animals Inc.) was obstructed with suture (silicon-coated nylon thread), and saline (Vehicle, n=7), test compound A (10 mg/kg, n=6) dissolved in saline, test compound B ([…], n=7) dissolved in saline, and test compound C (10 mg/kg, n=7) dissolved in saline were each intravenously administered in 30 min after occlusion and the artery was reperfused in 90 min after occlusion. The brain was isolated 24 hr later. A 2 mm brain strip was prepared, and the strip was stained with PBS (pH 7.4, 37° C.) containing 1% 2,3,5-triphenyltetrazolium chloride (TTC, Wako Pure Chemical Industries, Ltd.). The cerebral infarction area was measured by image analysis and the cerebral infarction volume was calculated."}, "[3]": {"experiment": "Evaluation of bioavailability in rat", "format": "in vivo, male SD(IGS) rats", "method": "Test compound A, test compound B and test compound C were each dissolved in 0.5% aqueous HPMC (hydroxypropyl methylcellulose) solution in the case of oral administration, or in saline in the case of intravenous administration, and they were orally or intravenously administered to male SD(IGS) rats (Charles River Laboratories Japan) by 3 mg/kg. The concentration of unchanged drug in the plasma of each rat was measured, and bioavailability (F(%)) was calculated (F (%)=(AUC0-∞,p.o./AUC0-∞,i.v.,mean)×(Dosei.v./Dosep.o.)×100). The test compound was administered by gavage using an oral gavage needle (p.o.), or administered in the tail vein (i.v.). The blood samples were collected at 15 and 30 min, 1, 2, 4, 6, 8 and 24 hr after administration in the case of oral administration, and 5 and 30 min, 1, 2, 4, 6, 8 and 24 hr after administration in the case of intravenous administration.\nThe results are shown in Tables 4 (test compound A), 5 (test compound B) and 6 (test compound C). The Cmax values for i.v. in Tables 4, 5 and 6 show plasma concentration at 5 min after administration."}, "MCP-1 [4]": {"test_system": "MCP-1", "experiment": "Intracerebral MCP-1 production in rat middle cerebral artery occlusion-reperfusion model", "format": "in vivo, male Wistar rats", "details": "10 mg/kg intravenously 30 min after occlusion; brain isolated 12 hr after occlusion; ELISA; FIG. 4", "method": "(§2) The middle cerebral artery of male Wistar rats (Japan Laboratory animals Inc.) was obstructed with suture (silicon-coated nylon thread), and test compound A (10 mg/kg) dissolved in saline was intravenously administered in 30 min after occlusion, and middle cerebral artery was reperfused in 60 min after administration. In only the rats used for TNF-α measurement, test compound A was administered orally. The brain was isolated at 12 hr after the occlusion (see Koizumi, J. et al., Jpn. J. Stroke, 8, 1-8, 1986). The brain tissue was homogenized, the centrifuged supernatant was collected and cytokine and chemokine were measured by ELISA. Intracerebral TNF-α, IL-1β and IL-6 were measured using an Immunoassay Kit (BIOSOURCE) according to the manufactures' protocol. MCP-1 was measured using an MCP-1 Instant ELISA (Bener MedSystems) according to the manufactures' protocol."}, "IL-1β": {"test_system": "IL-1β", "experiment": "Intracerebral IL-1β production in rat middle cerebral artery occlusion-reperfusion model", "format": "in vivo, male Wistar rats", "details": "10 mg/kg intravenously 30 min after occlusion; brain isolated 12 hr after occlusion; ELISA; FIG. 2", "method": "as §2"}, "TNF-α [5]": {"test_system": "TNF-α", "experiment": "Intracerebral TNF-α production in rat middle cerebral artery occlusion-reperfusion model", "format": "in vivo, male Wistar rats", "details": "10 mg/kg orally 30 min after occlusion; brain isolated 12 hr after occlusion; ELISA; FIG. 1", "method": "as §2"}, "[6]": {"test_system": "monkey middle cerebral artery permanent occlusion model", "experiment": "Brain injury volume and neurological deficit in monkey middle cerebral artery permanent occlusion model", "format": "in vivo, Macaca fascicularis", "details": "for spread of the cerebral infarction region (brain injury volume, MRI FLAIR): 5 mg/kg orally twice a day, FIG. 5", "method": "In monkey middle cerebral artery permanent occlusion model, the brain injury volume was measured by MR^1 (FLAIR method) one day and seven days after occlusion. Test compound A (5 mg/kg) dissolved in 0.5% tragacanth was repeatedly administered orally twice a day for 14 days. As for neurological score, the neurological function was evaluated by scoring the consciousness, perception, motility and muscular commands.\nThe middle cerebral artery permanent occlusion was conducted according to the method of Furuichi et al. (Furuichi, Y et al., J. Cereb. Blood Flow Metab., 23, 1183-1194, 2003), which is specifically as follows. Macaca fascicularis fasted in advance for 12 hr or longer was anesthetized by intramuscular administration of ketamine hydrochloride (10 mg/kg), anesthetized by intravenous administration of pentobarbital sodium (25 mg/kg) and fixed on an operating table. About 5 mm holes were made near foramen ovale and orbital fissure with a dental drill, dura mater and arachnoid mater were incised, and the middle cerebral artery trunk near the internal carotid artery bifurcation area was exposed. The middle cerebral artery trunk near the internal carotid artery bifurcation area was obstructed by electric coagulation to form cerebral infarction.\nTest compound A was orally administered within 1 hr and 6 hr after middle cerebral artery occlusion and within 30 min after feeding in the morning and evening (twice a day) from the next day for 14 days."}, "TNF-α [7]": {"test_system": "TNF-α", "experiment": "TNF-α production in LPS-administered mouse", "format": "in vivo, male BALB/c mouse", "method": "as §1"}, "IL-6": {"test_system": "IL-6", "experiment": "IL-6 production in LPS-administered mouse", "format": "in vivo, male BALB/c mouse", "details": "for IL-6 production (%): 10 mg/kg orally 30 min before LPS 500 μg/kg i.p., plasma 90 min after LPS, ratio to group without test compound", "method": "as §1"}, "[8]": {"details": "10 mg/kg orally 30 min before LPS"}, "[9]": {"details": "Table 1, 10 mg/kg orally 30 min before LPS 500 μg/kg i.p., plasma 90 min after LPS, ratio to group without test compound"}, "[10]": {"details": "3 mg/kg i.v., plasma, Mean + SD"}, "[11]": {"details": "3 mg/kg p.o., plasma, Mean + SD"}}, "note": "Marks after values point to notes of the source that are not given here."}
{"smiles": "CC(=O)NC1(c2ccc(CN3CCN(c4ncccn4)CC3)cc2)CC1.Cl", "note": "[test compound A, N-(1-(4-((4-(pyrimidin-2-yl)piperazin-1-yl)methyl)phenyl)cyclopropyl)acetamide•hydrochloride]", "values": [{"measurement": "IL-10 in LPS model mouse (in words)", "setting": "IL-10; [8]", "value": "increased"}, {"measurement": "IL-10 production (%)", "setting": "IL-10; [9]", "value": 397.1, "unit": "%"}, {"measurement": "MCP-1 production in LPS model mouse (in words)", "setting": "MCP-1 [1]; [8]", "value": "suppressed"}, {"measurement": "MCP-1 production (%)", "setting": "MCP-1 [1]; Table 2", "value": 61.7, "unit": "%"}, {"measurement": "MCP-1 production (%)", "setting": "MCP-1 [1]; Table 3", "value": 72.2, "unit": "%"}, {"measurement": "suppression of cerebral infarction volume", "setting": "[2]", "value": 42.5, "unit": "%"}, {"measurement": "AUC0-24 h", "setting": "[3]; [10]", "value": "3850 ± 78.4", "unit": "ngh/mL"}, {"measurement": "AUC0-∞", "setting": "[3]; [10]", "value": "3841.3 ± 77.4", "unit": "ngh/mL"}, {"measurement": "Cmax (C5 min, plasma concentration at 5 min after administration)", "setting": "[3]; [10]", "value": "2219.9 ± 103.8^2) ng/mL"}, {"measurement": "F (bioavailability)", "setting": "[3]; 3 mg/kg p.o. vs 3 mg/kg i.v., F = (AUC0-∞,p.o./AUC0-∞,i.v.,mean) × (Dosei.v./Dosep.o.) × 100", "value": 104.3, "unit": "%"}, {"measurement": "AUC0-24 h", "setting": "[3]; [11]", "value": "4032.9 ± 501.8", "unit": "ngh/mL"}, {"measurement": "AUC0-∞", "setting": "[3]; [11]", "value": "4008.2 ± 491.5", "unit": "ngh/mL"}, {"measurement": "Cmax", "setting": "[3]; [11]", "value": 1459.7, "unit": "ng/mL"}, {"measurement": "intracerebral MCP-1 concentration increased by transient cerebral ischemia", "setting": "MCP-1 [4]", "value": "suppressed"}, {"measurement": "intracerebral IL-1β concentration increased by transient cerebral ischemia", "setting": "IL-1β", "value": "suppressed"}, {"measurement": "intracerebral TNF-α concentration increased by transient cerebral ischemia", "setting": "TNF-α [5]", "value": "suppressed"}, {"measurement": "neurological deficit (neurological function score)", "setting": "[6]; 5 mg/kg orally twice a day for 14 days, FIG. 6", "value": "neurological deficit-ameliorating effect"}, {"measurement": "spread of the cerebral infarction region (brain injury volume, MRI FLAIR)", "setting": "[6]; 1 day after occlusion", "value": "suppressive action"}, {"measurement": "spread of the cerebral infarction region (brain injury volume, MRI FLAIR)", "setting": "[6]; 7 days after occlusion", "value": "suppressive action"}, {"measurement": "TNF-α production in LPS model mouse (in words)", "setting": "TNF-α [7]; [8]", "value": "suppressed"}, {"measurement": "TNF-α production (%)", "setting": "TNF-α [7]; [9]", "value": 43.5, "unit": "%"}, {"measurement": "IL-6 production in LPS model mouse (in words)", "setting": "IL-6; [8]", "value": "suppressed"}, {"measurement": "IL-6 production (%)", "setting": "IL-6; Table 2", "value": 74.4, "unit": "%"}, {"measurement": "IL-6 production (%)", "setting": "IL-6; Table 3", "value": 78.4, "unit": "%"}]}
